# pKi: −log10 of the molar value.
# Molecular target: CpNce103p (Candida parapsilosis, UniProt G8B6R8)
# Test: biochemical
# Format: biochemical
# Settings: not given
row,SMILES,pKi
1,"NCc1ccc(S(N)(=O)=O)cc1 [Compound 2, 4-(aminomethyl)benzenesulfonamide]",2.50
2,"O=[N+]([O-])c1ccccc1S(=O)(=O)Cl [Compound 3, 2-Nitrobenzenesulfonyl chloride]",3.06
3,"C#CCCS(N)(=O)=O [Compound 4, but-3-yne-1-sulfonamide]",3.03
4,"NS(=O)(=O)c1ccccc1 [Compound 5, Benzenesulfonamide]",3.04
5,"NN=C(c1ccccc1)c1ccccc1 [Compound 7, Benzophenone hydrazone]",3.52
6,"Nc1ccc(S(N)(=O)=O)cc1 [Compound 9, Sulfanilamide]",3.08
7,"[N-]=[N+]=NCC(=O)NCCc1ccc(S(N)(=O)=O)cc1 [Compound 10, 2-azido-N-(4-sulfamoylphenethyl)acetamide]",2.82
8,"NS(=O)(=O)c1ccc([N+](=O)[O-])cc1 [Compound 13, 4-Nitrobenzenesulfonamide]",3.73
9,"NS(=O)(=O)c1cc(C(=O)O)c(NCc2ccccc2)cc1Cl [Compound 14, 2-(benzylamino)-4-chloro-5-sulfamoylbenzoic acid]",3.42
10,"N[C@@H](Cc1c[nH]c2ccccc12)C(=O)O [Compound 15, L-Tryptophan]",3.07
11,"NS(=O)(=O)C(F)(F)F [Compound 16, Trifluoromethanesulfonamide]",5.66

# Same assay, conditions: pH 7.5; read-out: Ki
row,SMILES,pKi
1,"NS(N)(=O)=O [Compound 8, Sulfamide]",2.80

# — publication PMC12664589 (Journal of Structural Biology: X, 2025)
